The text below walks through data of ChEMBL document CHEMBL4346741, “Synthesis, pharmacological evaluation, and mechanistic study of adefovir mixed phosphonate derivatives bearing cholic acid and l-amino acid moieties for the treatment of HBV” (Bioorg Med Chem, 2019).

The subject of one data set is Hepatitis B virus. The data set is described as follows: Antiviral activity against Hepatitis B virus infected in human HepG2.2.15 cells assessed as inhibition of viral DNA synthesis incubated for 2 days followed by replacement of fresh medium containing compound and measured at day 10 by RT-PCR analysis. The format is functional, organism-based.
In a further data set the test system is HepG2 2.2.15. Nature of the data set: Cytotoxicity against human HepG2.2.15 cells assessed as reduction in cell viability incubated for 12 hrs followed by replacement of fresh medium containing compound and measured after 2 days by CCK-8 assay. The format is functional.
The nature of data set [1]: Selectivity index, ratio of CC50 for cytotoxicity against human HepG2.2.15 cells to EC50 for HBV infected in human HepG2.2.15 cells. Particulars: read-out: Ratio CC50/EC50. The format is toxicity, cell-based.
Substrate in data set [2]: [H][C@@]12C[C@H](O)CC[C@]1(C)[C@@]1([H])CC[C@@]3(C)[C@@]([H])(CC[C@]3([H])[C@H](C)CCC(=O)OCCCOP(=O)(COCCn3cnc4c(N)ncnc43)OCCCOC(=O)[C@H](N)[C@@H](C)CC)[C@]1([H])[C@@H](O)C2
The data set is described as follows: (§1) Substrate activity at human NTCP expressed in HEK293 cells harboring pEGFP assessed as Km for transporter-mediated drug uptake measured for 30 mins in presence of sodium chloride by UPLC-MS/MS analysis. The format is cell-based.

Substrate in data set [3]: [H][C@@]12C[C@H](O)CC[C@]1(C)[C@@]1([H])CC[C@@]3(C)[C@@]([H])(CC[C@]3([H])[C@H](C)CCC(=O)OCCCOP(=O)(COCCn3cnc4c(N)ncnc43)OCCCOC(=O)[C@H](N)C(C)C)[C@]1([H])[C@@H](O)C2
The description is as §1. The format is cell-based.

Substrate in data set [4]: [H][C@@]12C[C@H](O)CC[C@]1(C)[C@@]1([H])CC[C@@]3(C)[C@@]([H])(CC[C@]3([H])[C@H](C)CCC(=O)OCCCOP(=O)(COCCn3cnc4c(N)ncnc43)OCCCOC(=O)[C@H](N)CC(C)C)[C@]1([H])[C@@H](O)C2
Described as §1. In kind it is cell-based.

Substrate in data set [5]: [H][C@@]12C[C@H](O)CC[C@]1(C)[C@@]1([H])CC[C@@]3(C)[C@@]([H])(CC[C@]3([H])[C@H](C)CCC(=O)OCCCOP(=O)(COCCn3cnc4c(N)ncnc43)OCCCOC(=O)[C@@H](C)N)[C@]1([H])[C@@H](O)C2
The data set is described as §1. The format is cell-based.

For orientation: EC50 means the concentration needed to bring the measured effect to its halfway point. A word on the CC50: it is the concentration that lowers cell viability or growth by half. On to `C[C@H](CCC(=O)OCCCOP(=O)(COCCn1cnc2c(N)ncnc21)OCCCOC(=O)[C@@H](C)N)[C@H]1CC[C@H]2[C@@H]3CC[C@@H]4C[C@H](O)CC[C@]4(C)[C@H]3C[C@H](O)[C@]12C` (some centres undefined), for which the EC50 in the data set with Hepatitis B virus is 21.5 µM. The CC50 in the data set on HepG2 2.2.15 stood at 1050 µM. In addition, in data set [1], the selectivity ratio was determined as 48.8.
Take `CC(C)[C@H](N)C(=O)SCCCOP(=O)(COCCn1cnc2c(N)ncnc21)OCCCOC(=O)CC[C@@H](C)[C@H]1CC[C@H]2[C@@H]3[C@@H](O)C[C@@H]4C[C@H](O)CC[C@]4(C)[C@H]3CC[C@]12C` (some centres undefined): the EC50 in the data set on Hepatitis B virus came to 97 µM. Further, the CC50 with HepG2 2.2.15 was 1840 µM. The selectivity ratio in data set [1] was 19.
Taken in the same sequence, the figures for `CC(C)C[C@H](N)C(=O)SCCCOP(=O)(COCCn1cnc2c(N)ncnc21)OCCCOC(=O)CC[C@@H](C)[C@H]1CC[C@H]2[C@@H]3[C@@H](O)C[C@@H]4C[C@H](O)CC[C@]4(C)[C@H]3CC[C@]12C` (some centres undefined) were 14.8 µM, 2070 µM and 140.
As to `C[C@H](CCC(=O)OCCCOP(=O)(COCCn1cnc2c(N)ncnc21)OCCCOC(=O)[C@@H](C)N)[C@H]1CC[C@H]2[C@@H]3[C@@H](O)C[C@@H]4C[C@H](O)CC[C@]4(C)[C@H]3CC[C@]12C` (some centres undefined), the concentration for a half-maximal effect (EC50) with Hepatitis B virus worked out at 5.44 µM. Further, the half-maximal cytotoxic concentration (CC50) with HepG2 2.2.15 worked out at 489 µM. In addition, the selectivity ratio in data set [1] was found to be 90.
In the same order, the values of `CC[C@H](C)[C@@H](N)C(=O)OCCCOP(=O)(COCCn1cnc2c(N)ncnc21)OCCCOC(=O)CC[C@@H](C)[C@H]1CC[C@H]2[C@@H]3CC[C@@H]4C[C@H](O)CC[C@]4(C)[C@H]3C[C@H](O)[C@]12C` (some centres undefined) are 44.1 µM, 1880 µM and 42.5.
Taken in the same sequence, the figures for `C[C@H](CCC(=O)OCCCOP(=O)(COCCn1cnc2c(N)ncnc21)OCCCSC(=O)[C@@H](N)Cc1ccccc1)[C@H]1CC[C@H]2[C@@H]3[C@@H](O)C[C@@H]4C[C@H](O)CC[C@]4(C)[C@H]3CC[C@]12C` (some centres undefined) were 29.4 µM, 3040 µM and 103.
In the same order, the values of `CC[C@H](C)[C@@H](N)C(=O)OCCCOP(=O)(COCCn1cnc2c(N)ncnc21)OCCCOC(=O)CC[C@@H](C)[C@H]1CC[C@H]2[C@@H]3[C@@H](O)C[C@@H]4C[C@H](O)CC[C@]4(C)[C@H]3CC[C@]12C` (some centres undefined) are 0.65 µM, 378 µM and 528.
`CC(C)[C@@H](N)C(=O)OCCCOP(=O)(COCCn1cnc2c(N)ncnc21)OCCCOC(=O)CC[C@@H](C)[C@H]1CC[C@H]2[C@@H]3[C@@H](O)C[C@@H]4C[C@H](O)CC[C@]4(C)[C@H]3CC[C@]12C` (some centres undefined): the EC50 in the data set with Hepatitis B virus came to 3.34 µM. The half-maximal cytotoxic concentration (CC50) in the data set with HepG2 2.2.15 stood at 407 µM. Also, the selectivity ratio in data set [1] amounted to 122.
On to `CC(C)[C@H](N)C(=O)SCCCOP(=O)(COCCn1cnc2c(N)ncnc21)OCCCOC(=O)CC[C@@H](C)[C@H]1CC[C@H]2[C@@H]3CC[C@@H]4C[C@H](O)CC[C@]4(C)[C@H]3C[C@H](O)[C@]12C` (some centres undefined), for which, in the data set with Hepatitis B virus, the EC50 came out at 16.4 µM. The CC50 with HepG2 2.2.15 was found to be 1020 µM. Besides, in data set [1], the selectivity ratio came out at 62.5.
Taken in the same sequence, the figures for `C[C@H](CCC(=O)OCCCOP(=O)(COCCn1cnc2c(N)ncnc21)OCCCSC(=O)[C@@H](N)Cc1ccccc1)[C@H]1CC[C@H]2[C@@H]3CC[C@@H]4C[C@H](O)CC[C@]4(C)[C@H]3C[C@H](O)[C@]12C` (some centres undefined) were 18.8 µM, 789 µM and 41.9.
For `CC(C)C[C@@H](N)C(=O)OCCCOP(=O)(COCCn1cnc2c(N)ncnc21)OCCCOC(=O)CC[C@@H](C)[C@H]1CC[C@H]2[C@@H]3CC[C@@H]4C[C@H](O)CC[C@]4(C)[C@H]3C[C@H](O)[C@]12C` (some centres undefined), the EC50 in the data set with Hepatitis B virus came out at 9.77 µM. In addition, the CC50 with HepG2 2.2.15 came out at 876 µM. In addition, the selectivity ratio in data set [1] worked out at 89.7.
In the same order, the values of `CC(C)[C@@H](N)C(=O)OCCCOP(=O)(COCCn1cnc2c(N)ncnc21)OCCCOC(=O)CC[C@@H](C)[C@H]1CC[C@H]2[C@@H]3CC[C@@H]4C[C@H](O)CC[C@]4(C)[C@H]3C[C@H](O)[C@]12C` (some centres undefined) are 11.2 µM, 666 µM and 59.2.

B1: Hepatic sodium/bile acid cotransporter (Homo sapiens) (protein)
chain: MEAHNASAPFNFTLPPNFGKRPTDLALSVILVFMLFFIMLSLGCTMEFSKIKAHLWKPKGLAIALVAQYGIMPLTAFVLGKVFRLKNIEALAILVCGCSPGGNLSNVFSLAMKGDMNLSIVMTTCSTFCALGMMPLLLYIYSRGIYDGDLKDKVPYKGIVISLVLVLIPCTIGIVLKSKRPQYMRYVIKGGMIIILLCSVAVTVLSAINVGKSIMFAMTPLLIATSSLMPFIGFLLGYVLSALFCLNGRCRRTVSMETGCQNVQLCSTILNVAFPPEVIGPLFFFPLLYMIFQLGEGLLLIAIFWCYEKFKTPKDKTKMIYTAATTEETIPGALGNGTYKGEDCSPCTA
For orientation: Km means the substrate concentration at which the rate is half of its maximum. As usually defined, the Vmax is the top rate of the reaction or transport when substrate is in excess. On to B1, for which the Km in data set [2] stood at 102 µM; in data set [3], 113 µM; in data set [4], 45.5 µM; in data set [5], 48.2 µM. Also, the Vmax turned out to be 6.86 µmol/min/mg in data set [2], 7.95 µmol/min/mg in data set [3], 9.61 µmol/min/mg in data set [4] and 8.28 µmol/min/mg in data set [5].
